Experimental data reported in US5484803A, “Transcutaneous in vivo activation of photosensitive agents in blood” (priority 1995, dated 1996).
Several values for one entry are separate records, joined by “and”; a condition that tells them apart may be missing. Equal values may be shown once.

Columns and labels:
[1] = Body and organ weights and gross autopsy two weeks post-treatment; assay type: in vivo, Balb/c mice
Procedure: Six Balb/c mice (22±1 g weight) were prepared as described above. Five mice were injected twice (24 hour interval) with BPD from DMSO stock (not liposomal BPD) and exposed to light 1 hour after the injection. One mouse was not injected but was exposed to light (light-only control). During the first treatment the mice were injected with 15 μg BPD/mouse in 200 μl of PBS. During the second treatment the mice were injected with 20 μg BPD/mouse (0.9 mg/kg). A single mouse was used as a control for both treatments.
Immediately post-injection (on both occasions) the animals were kept for 1 hour in the dark and then were placed in individual plastic containers (9×4×5 cm), which were placed in the light box and exposed to light. The individual mice were removed from the light box at different intervals: 15, 30, 45, 60 and 75 min, respectively. The light doses delivered at the surface of the skin were 27, 54, 81, 108 and 135 J/cm^2, respectively. On the second occasion the same light doses were used; however, mice receiving higher light doses on day 1 received lower doses on day 2. The control mouse was exposed to light for 60 min on both occasions. During light exposure, the mice were constantly observed for signs of discomfort or itching. After the second light exposure, the mice were observed daily for a period of 2 weeks for appearance of the skin and general pattern of behavior.
Two weeks post-treatment blood samples were obtained from each mouse by a heart puncture, under halothane anesthesia. Then the mice were sacrificed and autopsied. Their spleen, liver and kidneys were weighed.

[2] = Transcutaneous activation: photodegradation of BPD in plasma in vivo; set-up: species or system mice; conditions: for BPD in Plasma: individual values; for photodegraded BPD, Dose / Photodegraded BPD: in vivo
From the text: The light box was custom built at a workshop at the University of British Columbia. It was composed of two layers of 14 75 W tungsten-halogen reflector bulbs (General Electric), which illuminated the treatment area from the top and from the bottom. Light was filtered by 1) a set of filters comprising yellow and red plastic films which absorbed most of the light at wavelengths shorter than 600 nm and 2) 15 mm thick water filters which absorbed light above 900 nm. Cooling was provided by a steady flow of cold water in the water filters and by a set of 5 fans. The light intensity was measured by an IL 1350 Photometer (International Light).
The intensity of light delivered by the top and bottom sets of bulbs was not uniform. The bottom set delivered 33-40 mW/cm^2 as measured at floor level of the exposure chamber, while the top set delivered 27-33 mW/cm^2 as measured at the skin surface of the backs of the animals. The range described resulted from inconsistent influence at the horizontal plane of irradiation. In addition, mice moved about during light exposure, so that at various times different parts of their skin received different amounts of light. Therefore, the doses delivered to the surface of mice skin must be approximated and the calculations have been based on an intensity of 30 mW/cm^2.
(§1) Determination of BPD Concentration in Plasma: Plasma samples were obtained by centrifugation of blood collected from mice and stored frozen at -20° C. until assessment. The concentration of BPD in the samples was determined by fluorometry using a Jasco Model FP-770 (Japan Spectroscopic Co.) spectrofluorometer and a microcuvette (Far UV Quartz Cell, Starna Cells Inc.). Excitation and emission wavelengths were 439 and 699 nm, respectively. Plasma samples were diluted 20-fold with PBS containing 1% Triton® X-100 immediately before fluorescence was determined. BPD standards were prepared in 5% mouse plasma in PBS with 1% Triton® X-100. Under these conditions the relationship between the concentration of BPD and units of fluorescence was linear (correlation coefficient >0.99) for concentrations between 0.1 ng/ml and 1 μg/ml. The limit of detection was below 0.1 ng/ml sample which corresponded to 2 ng/ml plasma. […] The 699 nm fluorescence peak of BPD was virtually free from any interference.
Fourteen mice (weight 22±1 g) were used in this study. Twelve mice were injected with 20 μg (0.9 mg/kg) of liposomal BPD (in 200 μl) and kept in the dark for 1 hour before exposure to light. The mice each were exposed to light for 30 min, 1 hour or 1.5 hours, which delivered light doses to the skin surface of 54, 108 and 162 J/cm^2, respectively. Immediately after light exposure, blood samples were obtained. At the corresponding times, blood samples were obtained from two mice injected with BPD, but not exposed to light. Two additional mice were tested one hour after injection.
The aim of this study was to determine light penetration of the tissues to activate BPD. It was assumed that the substantial photodegradation of BPD in blood would represent substantial activation of BPD.
The BPD plasma concentration was then determined by fluorescence. The concentrations of unchanged BPD in the plasma of exposed and unexposed control mice were compared.

L1210 cells = test: Surviving clonogenic L1210 cells in mouse blood; assay type: in vivo, Balb/c mice; conditions: for Surviving cells in blood: average of 3 mice/group
Procedure: (§2) Male mature DBA/2 and Balb/c mice were injected intravenously with P815 and L1210 cells, respectively, preincubated for 1 hour with BPD (liposomal) at 100 ng/ml. Immediately before animal injection, an additional 2 μg of BPD was added to the syringes containing cells. […] One group of mice (shaved and depilated) was exposed immediately to red light (600-900 nm) in the light box for 1.5 hours (162 J/cm^2); the other group was kept in the dark as the control.
(§3) Immediately after exposure to light, blood samples were obtained by a heart puncture under halothane anesthesia. The concentration of BPD in plasma of light-exposed and control mice was determined by fluorescence. The number of clonogenic tumor cells in mouse blood was determined by culturing blood samples in culture medium supplemented with 10% bovine serum, using a limiting dilution assay protocol.

P815 cells = test: Surviving clonogenic P815 cells in mouse blood; assay type: in vivo, DBA/2 mice; conditions: average of 3 mice/group
Procedure: as §2, §3

[3] = BPD concentration in plasma of mice injected with P815 cells; assay type: in vivo, DBA/2 mice; conditions: for BPD in Plasma: DBA/2 mice injected with P815 cells; for BPD in Plasma, % of dark control: P815
Procedure: as §1, §2, §3

Red blood cells = conditions: after the virucidal treatment; cited from earlier work
[4] = Drug + Light, individual mice, 2 weeks post-treatment
[5] = 1 1/2 h - C, no light, 2 1/2 h post injection, 0.9 mg/kg, 150 min
[6] = 1 1/2 h light, 162 J/cm^2, 2 1/2 h post injection, 0.9 mg/kg, 150 min
[7] = 30 min - C, no light, 1 1/2 h post injection, 0.9 mg/kg, 90 min
[8] = 30 min light, 54 J/cm^2, 1 1/2 h post injection, 0.9 mg/kg, 90 min

For “benzoprophyrin derivative monoacid ring A [BPD]”, the “gross morphology and weights of internal organs” value ([1]; 2 weeks after double treatment, liver, spleen, kidneys) was “normal”, the “toxicity (gross examination of liver, spleen, kidneys; blood parameters)” value ([1]; 2 weeks post-treatment) was “no toxicity was detected” and the Kidneys weight [1, 4] was 0.172 g and 0.343 g and 0.380 g and 0.396 g and 0.310 g. For the same substance, the Liver weight [1, 4] was 1.105 g and 1.190 g and 1.208 g and 1.348 g and 0.958 g, the Spleen weight [1, 4] was 0.077 g and 0.106 g and 0.094 g and 0.108 g and 0.078 g and the “Total Body Weight” value [1, 4] was 22 g and 23 g and 24 g and 25 g and 21 g. The “BPD in Plasma, Mean ± SD” value ([2]; 0 h - C, no light, 1 h post injection, 0.9 mg/kg) was 1.243 ± 0.262 µg/mL, the “BPD in Plasma” value ([2]; 0 h - C, no light, 1 h post injection, 0.9 mg/kg, 60 min) was 1.428 µg/mL and 1.058 µg/mL and the “BPD in Plasma, Mean ± SD” value [2, 5] was 0.690 ± 0.048 µg/mL. The “BPD in Plasma” value [2, 5] was 0.724 µg/mL and 0.656 µg/mL, the “BPD in Plasma, Mean ± SD” value [2, 6] was 0.168 ± 0.033 µg/mL and the “BPD in Plasma” value [2, 6] was 0.191 µg/mL and 0.145 µg/mL. The “BPD in Plasma, Mean ± SD” value [2, 7] was 0.930 ± 0.441 µg/mL, the “BPD in Plasma” value [2, 7] was 0.618 µg/mL and 1.242 µg/mL and the “BPD in Plasma, Mean ± SD” value [2, 8] was 0.596 ± 0.042 µg/mL. The “BPD in Plasma” value [2, 8] was 0.566 µg/mL and 0.626 µg/mL, the “BPD in Plasma, Mean ± SD” value ([2]; 1 h - C, no light, 2 h post injection, 0.9 mg/kg) was 0.944 ± 0.421 µg/mL and the “BPD in Plasma” value ([2]; 1 h - C, no light, 2 h post injection, 0.9 mg/kg, 120 min) was 0.646 µg/mL and 1.242 µg/mL. The “BPD in Plasma, Mean ± SD” value ([2]; 1 h light, 108 J/cm^2, 2 h post injection, 0.9 mg/kg) was 0.301 ± 0.061 µg/mL, the “BPD in Plasma” value ([2]; 1 h light, 108 J/cm^2, 2 h post injection, 0.9 mg/kg, 120 min) was 0.258 µg/mL and 0.344 µg/mL and the “photodegraded BPD, Dose” value ([2]; 54 J/cm^2) was 0.334 µg/mL. For the same substance, the “Photodegraded BPD” value ([2]; 54 J/cm^2, 0.9 mg/kg) was 36%, the “photodegraded BPD, Dose” value ([2]; 108 J/cm^2) was 0.643 µg/mL and the “Photodegraded BPD” value ([2]; 108 J/cm^2, 0.9 mg/kg) was 68%. The “photodegraded BPD, Dose” value ([2]; 162 J/cm^2) was 0.522 µg/mL, the “Photodegraded BPD” value ([2]; 162 J/cm^2, 0.9 mg/kg) was 76% and the “BPD photodegraded in blood in vivo” value ([2]; light doses of 54-162 J/cm^2, 0.9 mg/kg) was 36-76%. For the same substance, the “plasma concentrations of BPD at the beginning of exposure to light” value ([2]; present study, 0.9 mg/kg, 1 hour after injection) was “above 3 μg/ml”, the “Surviving cells in blood” value (L1210 cells; Dark control) was 234 L1210 cells/2 ml blood/mouse and the “Surviving cells in blood” value (L1210 cells; Light exposed (162 J/cm^2)) was 21 L1210 cells/2 ml blood/mouse. The “destruction of BPD pre-loaded tumor cells” value (L1210 cells; whole body exposure to red light (L1210 and P815 examples)) was “a large number of BPD pre-loaded tumor cells were destroyed”, the “Surviving cells in blood” value (P815 cells; Dark control) was 50 P815 cells/2 ml blood/mouse and the “Surviving cells in blood” value (P815 cells; Light exposed (162 J/cm^2)) was 8 P815 cells/2 ml blood/mouse. The Percent photodegraded ([3]; DBA/2, P815, 162 J/cm^2) was 38%, the “BPD in Plasma” value ([3]; Dark control) was 94.09 ng/mL and the “BPD in Plasma, % of dark control” value ([3]; Dark control) was 100%. For the same substance, the “BPD in Plasma” value ([3]; Light exposed (162 J/cm^2)) was 58.14 ng/mL, the “BPD in Plasma, % of dark control” value ([3]; Light exposed (162 J/cm^2)) was 62% and the “red blood cell viability” value (Red blood cells) was “appeared viable”.
